Non-standard residues stand in square brackets, D forms with d. Residues, ends and D or L forms follow the SMILES beside them. No end group written: not given here.
Assays:
[1] = biological target: T1, NOP receptor (NOP-RLuc/Gβ1-RGFP) (Homo sapiens, UniProt P41146); assay: NOP/G protein interaction, BRET assay in membranes; assay type: biochemical; details: for NOP/G protein pEC50 (CL95%): BRET, membranes (3 μg protein) from HEK293 cells co-expressing NOP-RLuc/Gβ1-RGFP, room temperature, mean of five independent experiments in duplicate, 95% confidence limits; for NOP/G protein α ± sem (intrinsic activity): Emax of ligand / Emax of N/OFQ(1–13)-NH2, mean ± sem of five experiments in duplicate; for NOP/G protein CR (concentration ratio): ratio between EC50 of the ligand and that of the standard agonist N/OFQ(1–13)-NH2
T1 construct: expressed in transfected cells; host or cells: HEK293 (enriched plasma membranes)
Procedure: (§1) For this study, human embryonic kidney (HEK293) cells, permanently co-expressing the different pairs of fusion proteins NOP-RLuc/Gβ1-RGFP and NOP-RLuc/β-arrestin 2-RGFP, and SH-SY5Y cells stably, co-expressing the different pairs of fusion proteins mu-RLuc/Gβ1-RGFP and mu-RLuc/β-arrestin 2-RGFP or delta-RLuc/Gβ1-RGFP and delta-RLuc/β-arrestin 2-RGFP, were used. Cells were prepared and cultured, as described previously.[19],[23] Cells were grown in Dulbecco’s modified Eagle’s medium (DMEM)/HAMS F12 (1:1) supplemented with 10% fetal bovine serum, penicillin G (100 units/mL), streptomycin (100 μg mL^–1), L-glutamine (2 mM), fungizone (1 μg mL^–1), geneticin (G418; 200 μg mL^–1), and hygromycin B (100 μg mL^–1) in a humidified atmosphere of 5% CO2 at 37 °C. For G protein experiments, enriched plasma membrane aliquots from transfected cells were prepared by differential centrifugation; cells were detached with phosphate buffered saline (PBS)/EDTA solution (1 mM, pH 7.4 NaOH), then, after 5 min 500g centrifugation, Dounce-homogenized (30 strokes) in cold homogenization buffer (tris(hydroxymethyl)aminomethane 5 mM, EGTA 1 mM, DTT 1 mM, pH 7.4 HCl) in the presence of sucrose (0.32 M). Three following centrifugations were performed at 10 min 1000g (4 °C), and the supernatants were kept. Two 20 min 24,000g (4 °C) subsequent centrifugations (the second in the absence of sucrose) were performed for separating enriched membranes that, after discarding the supernatant, were kept in ultrapure water at −80 °C.[67] The protein concentration in membrane preparations was determined using the QPRO-BCA kit (Cyanagen Srl, Bologna, IT) and the Ensight (PerkinElmer, Waltham, USA) in the spectrophotometer mode.
(§2) Luminescence in membranes was recorded in 96-well untreated white opaque microplates, while in whole cells, it was recorded in 96-well sterile poly-D-lysine-coated white opaque microplates (PerkinElmer, Waltham, MA, USA) using the luminometer Victor 2030 (PerkinElmer, Waltham, MA, USA). For the determination of receptor/G protein interactions, membranes (3 μg of protein) prepared from cells co-expressing NOP (or mu or delta)/RLuc and Gβ1/RGFP were added to wells in DPBS. For the determination of receptor/β-arrestin 2 interactions, cells co-expressing NOP (or mu or delta)/RLuc and β-arrestin 2/RGFP were plated 24 h before the experiment in poly-D-lysine-treated plates (100,000 cells/well). The cells were prepared for the experiment substituting the medium with PBS with MgCl2 (0.5 mM) and CaCl2 (0.9 mM). Coelenterazine at a final concentration of 5 μM was injected 15 min prior to reading the cell plate. Different concentrations of ligands in 20 μL of PBS–BSA 0.01% were added and incubated 5 min before reading luminescence. […] The BRET ratio was measured 15 min after agonist injection. All experiments were performed at room temperature.
(§3) The pharmacological terminology adopted in this paper is consistent with IUPHAR recommendations.[68] All data are expressed as the mean ± sem of five independent experiments made in duplicate. […] Ligand efficacy was expressed as intrinsic activity (α), calculated as the ratio between the Emax of the ligand and that of the standard agonist. Count per second (CPS) measured for the RGFP and RLuc light emitted using 510(10) and 460(25) filters (PerkinElmer, Waltham, MA), respectively, was used to calculate the BRET ratio. All data are expressed as the stimulated BRET ratio, that is, the ratio between CPS from RGFP and RLuc in the presence of ligands minus the BRET ratio in vehicle-treated wells. […] Concentration–response curves to agonists were fitted to the classical four-parameter logistic nonlinear regression model [drawing 1]
(§4) Curves fitting were performed using PRISM 6.0 (GraphPad Software In., San Diego, USA).

[2] = biological target: T2, NOP receptor (NOP-RLuc/β-arrestin 2-RGFP) (Homo sapiens, UniProt P41146); assay: NOP/β-arrestin 2 interaction, BRET assay in whole cells; assay type: cell-based; details: for NOP/β-arrestin 2 pEC50 (CL95%): BRET, whole HEK293 cells co-expressing NOP-RLuc/β-arrestin 2-RGFP, 100,000 cells/well, room temperature, mean of five independent experiments in duplicate, 95% confidence limits; for NOP/β-arrestin 2 α ± sem (intrinsic activity): Emax of ligand / Emax of N/OFQ(1–13)-NH2, mean ± sem of five experiments in duplicate; for NOP/β-arrestin 2 CR (concentration ratio): ratio between EC50 of the ligand and that of the standard agonist N/OFQ(1–13)-NH2
T2 construct: expressed in transfected cells; host or cells: HEK293 (whole cells)
Procedure: as §1, §2, §3, §4

NOP receptor = assay: NOP bias factor, G protein vs β-arrestin 2 (Black–Leff operational model); details: for BIAS FACTOR: supplementary CSV (molecular formula strings), repeats Tables 1–7 without confidence limits; for bias factor (CL95%), NOP: ΔΔlog(τ/KA) G protein minus β-arrestin 2, N/OFQ(1–13)-NH2 as standard unbiased ligand, positive = toward G protein, mean of at least five experiments
Text: The concentration–response curves of each compound were fitted to the Black–Leff operational model, described by Nagi and Pineyro[70] [drawing 3] where [A] is the agonist concentration, the maximal response of the system is given by Em, n is a fitting parameter for the slope, the affinity of the agonist is represented by the equilibrium dissociation constant of the agonist–receptor complex (KA), and the efficacy of the agonist is defined by τ. τ and KA are descriptive parameters of intrinsic efficacy and binding affinity and may be directly obtained by fitting the experimental data to the operational equation and can be expressed as “transduction coefficients” log(τ/KA). The relative efficiency of agonists producing activation of any pathways can thus be quantified with a “normalized” transduction coefficient, namely Δlog(τ/KA). Finally, the bias factors were calculated as difference between Δlog(τ/KA) values for a given agonist between the pathways (G protein and β-arrestin 2) [drawing 4]
Bias factors are expressed as the mean of at least five independent experiments, and CL95% are indicated. Biased factor is considered to be statistically different from 0 when 0 is not included in CL95%. α values have been statistically analyzed with one-way analysis of variance (ANOVA) followed by the Dunnett post hoc test for multiple comparisons; P values less than 0.05 were considered to be statistically significant.

[3] = biological target: N/OFQ peptide (NOP) receptor fused to Renilla luciferase (UniProt P41146)
Chain of N/OFQ peptide (NOP) receptor fused to Renilla luciferase (P41146 whole entry, the tested form may be a part): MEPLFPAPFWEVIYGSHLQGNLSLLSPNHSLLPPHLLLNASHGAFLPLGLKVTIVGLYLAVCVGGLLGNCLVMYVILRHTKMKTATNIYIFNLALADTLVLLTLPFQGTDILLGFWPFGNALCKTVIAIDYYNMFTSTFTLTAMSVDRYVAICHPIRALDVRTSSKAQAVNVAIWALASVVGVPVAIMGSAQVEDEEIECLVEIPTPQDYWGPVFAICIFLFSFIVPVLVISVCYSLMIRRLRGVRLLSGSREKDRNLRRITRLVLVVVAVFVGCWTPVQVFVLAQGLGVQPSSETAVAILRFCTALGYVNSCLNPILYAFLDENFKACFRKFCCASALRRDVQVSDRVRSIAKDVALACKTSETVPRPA

T1 sequence (P41146 whole entry): as the sequence (P41146 whole entry, the tested form may be a part) above
T2 sequence (P41146 whole entry): as the sequence (P41146 whole entry, the tested form may be a part) above

## FGGFTGARKSARA-NH2 [Compound 11, [Ala^13]N/OFQ(1–13)-NH2]
[1]
  NOP/G protein pEC50 (CL95%): 7.91 (7.24–8.59)
  NOP/G protein α ± sem (intrinsic activity): 0.96 ± 0.06
  NOP/G protein CR (concentration ratio): 8
[2]
  NOP/β-arrestin 2 pEC50 (CL95%): 7.88 (7.75–8.01)
  NOP/β-arrestin 2 α ± sem (intrinsic activity): 1.03 ± 0.05
  NOP/β-arrestin 2 CR (concentration ratio): 2
NOP receptor
  BIAS FACTOR: -0.48
  bias factor (CL95%), NOP: –0.48 (−1.14–0.18)

## LGGFTGARKSARK-NH2 [Compound 23, [Leu^1]N/OFQ(1–13)-NH2]
[1]
  NOP/G protein pEC50 (CL95%): 8.19 (7.88–8.51)
  NOP/G protein α ± sem (intrinsic activity): 1.06 ± 0.02
  NOP/G protein CR (concentration ratio): 3
[2]
  NOP/β-arrestin 2 pEC50 (CL95%): 7.87 (7.69–8.04)
  NOP/β-arrestin 2 α ± sem (intrinsic activity): 1.04 ± 0.06
  NOP/β-arrestin 2 CR (concentration ratio): 3
NOP receptor
  BIAS FACTOR: -0.08
  bias factor (CL95%), NOP: –0.08 (−0.53–0.37)

## FGGFTGARASARK-NH2 [Compound 8, [Ala^9]N/OFQ(1–13)-NH2]
[1]
  NOP/G protein pEC50 (CL95%): 8.14 (6.88–9.41)
  NOP/G protein α ± sem (intrinsic activity): 0.97 ± 0.04
  NOP/G protein CR (concentration ratio): 5
[2]
  NOP/β-arrestin 2 pEC50 (CL95%): 7.77 (7.43–8.11)
  NOP/β-arrestin 2 α ± sem (intrinsic activity): 1.03 ± 0.07
  NOP/β-arrestin 2 CR (concentration ratio): 3
NOP receptor
  BIAS FACTOR: -0.15
  bias factor (CL95%), NOP: –0.15 (−0.79–0.49)

## C[C@H](NC(=O)CNC(=O)[C@@H](NC(=O)[C@H](Cc1ccccc1)NC(=O)CNC(=O)[C@@H](C)NC(=O)[C@@H](N)Cc1ccccc1)[C@@H](C)O)C(=O)N[C@@H](CCCNC(=N)N)C(=O)N[C@@H](CCCCN)C(=O)N[C@@H](CO)C(=O)N[C@@H](C)C(=O)N[C@@H](CCCNC(=N)N)C(=O)N[C@@H](CCCCN)C(N)=O [Compound 26, [D-Ala^2]N/OFQ(1–13)-NH2] (H-F[dA]GFTGARKSARK-NH2)
[1]
  less potent than N/OFQ(1–13)-NH2 / reduction of potency, NOP/G protein: approximately 10 fold
  NOP/G protein pEC50 (CL95%): 7.57 (7.28–7.86)
  NOP/G protein α ± sem (intrinsic activity): 1.03 ± 0.03
  NOP/G protein CR (concentration ratio): 13
[2]
  NOP/β-arrestin 2 pEC50 (CL95%): 7.16 (6.94–7.34)
  NOP/β-arrestin 2 α ± sem (intrinsic activity): 0.95 ± 0.05
  NOP/β-arrestin 2 CR (concentration ratio): 13
NOP receptor
  BIAS FACTOR: 0.20
  bias factor (CL95%), NOP: 0.20 (−0.26–0.66)

## FGGFTGARKAARK-NH2 [Compound 9, [Ala^10]N/OFQ(1–13)-NH2]
[1]
  NOP/G protein pEC50 (CL95%): 9.25 (7.82–10.68)
  NOP/G protein α ± sem (intrinsic activity): 0.94 ± 0.04
  NOP/G protein CR (concentration ratio): 0.35
[2]
  NOP/β-arrestin 2 pEC50 (CL95%): 8.43 (7.91–8.95)
  NOP/β-arrestin 2 α ± sem (intrinsic activity): 1.00 ± 0.04
  NOP/β-arrestin 2 CR (concentration ratio): 0.68
NOP receptor
  BIAS FACTOR: -0.08
  bias factor (CL95%), NOP: –0.08 (−0.67–0.50)

## [Cys(X)^14]N/OFQ(1-14)-NH2 [Compound 49] (chain 1 FGGFTGARKSARKC; chain 2 KKKKKK) [(Lys)6 moiety]
[1]
  NOP/G protein pEC50 (CL95%): 10.06 (9.79-10.34)
[2]
  NOP/β-arrestin 2 pEC50 (CL95%): 8.22 (8.03-8.40)

## FGGFTGARKSAAK-NH2 [Compound 10, [Ala^12]N/OFQ(1–13)-NH2]
[1]
  NOP/G protein pEC50 (CL95%): 7.31 (6.41–8.22)
  NOP/G protein α ± sem (intrinsic activity): 0.91 ± 0.04
  NOP/G protein CR (concentration ratio): 31
[2]
  NOP/β-arrestin 2 pEC50 (CL95%): 6.85 (6.57–7.14)
  NOP/β-arrestin 2 α ± sem (intrinsic activity): 0.99 ± 0.05
  NOP/β-arrestin 2 CR (concentration ratio): 26
NOP receptor
  BIAS FACTOR: -0.15
  bias factor (CL95%), NOP: –0.15 (−0.78–0.49)

## [D-Phe^3]N/OFQ(1–13)-NH2 (FG[dF]FTGARKSARK-NH2; N-terminus assumed; SMILES C[C@H](NC(=O)CNC(=O)[C@@H](NC(=O)[C@H](Cc1ccccc1)NC(=O)[C@@H](Cc1ccccc1)NC(=O)CNC(=O)[C@@H](N)Cc1ccccc1)[C@@H](C)O)C(=O)N[C@@H](CCCNC(=N)N)C(=O)N[C@@H](CCCCN)C(=O)N[C@@H](CO)C(=O)N[C@@H](C)C(=O)N[C@@H](CCCNC(=N)N)C(=O)N[C@@H](CCCCN)C(N)=O) [Compound 25]
[1]
  NOP/G protein pEC50 (CL95%): inactive
[2]
  NOP/β-arrestin 2 pEC50 (CL95%): inactive

## [Ala^8]N/OFQ(1–13)-NH2 (FGGFTGAAKSARK-NH2) [Compound 7]
[1]
  NOP/G protein pEC50 (CL95%): Crc incomplete
  NOP/G protein CR (concentration ratio): ∼1000
[2]
  NOP/β-arrestin 2 pEC50 (CL95%): inactive

## FGGFAGARKSARK-NH2 [[Ala^5]N/OFQ(1–13)-NH2]
[3]
  pEC50 for promoting the NOP/G protein interaction (BRET, membranes with NOP-RLuc and Gβ1-RGFP): 7.12 -log10 M
  pEC50 for promoting the NOP/β-arrestin 2 interaction (BRET, cells with NOP-RLuc and β-arrestin 2-RGFP): 6.13 -log10 M

## FGGFTAARKSARK-NH2 [[Ala^6]N/OFQ(1–13)-NH2]
[3]
  pEC50 for promoting the NOP/G protein interaction (BRET, membranes with NOP-RLuc and Gβ1-RGFP): 7.66 -log10 M
  pEC50 for promoting the NOP/β-arrestin 2 interaction (BRET, cells with NOP-RLuc and β-arrestin 2-RGFP): 7.1 -log10 M

## FGGFTGARASARK-NH2 [[Ala^9]N/OFQ(1–13)-NH2]
[3]
  pEC50 for promoting the NOP/G protein interaction (BRET, membranes with NOP-RLuc and Gβ1-RGFP): 8.14 -log10 M
  pEC50 for promoting the NOP/β-arrestin 2 interaction (BRET, cells with NOP-RLuc and β-arrestin 2-RGFP): 7.77 -log10 M

## FGGFTGAAKSARK-NH2 [[Ala^8]N/OFQ(1–13)-NH2]
[3]
  concentration ratio (EC50 of the ligand / EC50 of N/OFQ(1–13)-NH2) for promoting the NOP/G protein interaction (BRET, membranes); concentration–response curve incomplete: 1000

Source: paper PMC8011926 (Journal of Medicinal Chemistry, 2020)
